Assay results as given in PMC3961306, “Comparison of the Cancer Gene Targeting and Biochemical Selectivities of All Targeted Kinase Inhibitors Approved for Clinical Use” (PLoS ONE, 2014).

Assays:
Assay in all cases: Kinase profiling in a biochemical assay panel (mobility shift assays and ELISA), %-inhibition at 1 μM; selectivity entropy
[1] = molecular target: panel of more than 300 wild-type and mutant kinases (313 kinase panel) (Homo sapiens, UniProt P42336); conditions: kinase PIK3CA/PIK3R1; 1 μM
[2] = molecular target: panel of more than 300 wild-type and mutant kinases (313 kinase panel) (Homo sapiens, UniProt P07949, Y791F); conditions: kinase RET(Y791F); 1 μM
[3] = molecular target: T1, panel of more than 300 wild-type and mutant kinases (313 kinase panel) (Homo sapiens, UniProt O15530); conditions: kinase PDK1; 1 μM
T1 sequence (O15530 1-556): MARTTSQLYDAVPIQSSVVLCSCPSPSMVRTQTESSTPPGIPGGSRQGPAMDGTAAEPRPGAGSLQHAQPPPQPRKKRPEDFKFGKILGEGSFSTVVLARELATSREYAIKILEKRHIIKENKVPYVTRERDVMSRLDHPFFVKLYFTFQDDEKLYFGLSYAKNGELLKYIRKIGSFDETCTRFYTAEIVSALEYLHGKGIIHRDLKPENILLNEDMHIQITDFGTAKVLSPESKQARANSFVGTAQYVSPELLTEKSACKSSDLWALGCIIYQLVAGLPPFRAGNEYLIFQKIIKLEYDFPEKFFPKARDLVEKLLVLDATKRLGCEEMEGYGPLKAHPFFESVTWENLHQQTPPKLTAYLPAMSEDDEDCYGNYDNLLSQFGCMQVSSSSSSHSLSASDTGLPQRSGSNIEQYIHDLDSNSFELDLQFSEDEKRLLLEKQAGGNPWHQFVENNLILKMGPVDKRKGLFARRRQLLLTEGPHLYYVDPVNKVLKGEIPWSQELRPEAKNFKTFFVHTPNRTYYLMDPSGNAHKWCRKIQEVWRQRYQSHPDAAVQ

[4] = molecular target: panel of more than 300 wild-type and mutant kinases (313 kinase panel) (Homo sapiens, UniProt Q9H2X6); conditions: kinase HIPK2; compound at 1 μM
[5] = molecular target: T2, panel of more than 300 wild-type and mutant kinases (313 kinase panel) (Homo sapiens, UniProt P51817); conditions: kinase PRKX; 1 μM
T2 sequence (P51817 1-358): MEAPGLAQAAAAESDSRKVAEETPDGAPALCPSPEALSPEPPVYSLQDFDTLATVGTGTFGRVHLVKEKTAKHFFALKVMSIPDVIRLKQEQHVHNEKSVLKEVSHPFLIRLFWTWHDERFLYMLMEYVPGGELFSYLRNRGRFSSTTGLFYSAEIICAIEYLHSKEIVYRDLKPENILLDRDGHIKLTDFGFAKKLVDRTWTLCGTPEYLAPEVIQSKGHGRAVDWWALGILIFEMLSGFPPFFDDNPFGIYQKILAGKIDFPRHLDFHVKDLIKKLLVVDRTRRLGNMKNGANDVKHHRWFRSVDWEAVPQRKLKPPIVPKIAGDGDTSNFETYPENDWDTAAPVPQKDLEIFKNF

[6] = molecular target: panel of more than 300 wild-type and mutant kinases (313 kinase panel) (Homo sapiens, UniProt P10721, D816V); conditions: kinase KIT(D816V); compound at 1 μM
[7] = molecular target: panel of more than 300 wild-type and mutant kinases (313 kinase panel) (Homo sapiens, UniProt Q13882); conditions: kinase BRK; 1 μM compound
[8] = molecular target: T3, panel of more than 300 wild-type and mutant kinases (313 kinase panel) (Homo sapiens, UniProt P15735); conditions: kinase PHKG2; 1 μM
T3 sequence (P15735 1-406): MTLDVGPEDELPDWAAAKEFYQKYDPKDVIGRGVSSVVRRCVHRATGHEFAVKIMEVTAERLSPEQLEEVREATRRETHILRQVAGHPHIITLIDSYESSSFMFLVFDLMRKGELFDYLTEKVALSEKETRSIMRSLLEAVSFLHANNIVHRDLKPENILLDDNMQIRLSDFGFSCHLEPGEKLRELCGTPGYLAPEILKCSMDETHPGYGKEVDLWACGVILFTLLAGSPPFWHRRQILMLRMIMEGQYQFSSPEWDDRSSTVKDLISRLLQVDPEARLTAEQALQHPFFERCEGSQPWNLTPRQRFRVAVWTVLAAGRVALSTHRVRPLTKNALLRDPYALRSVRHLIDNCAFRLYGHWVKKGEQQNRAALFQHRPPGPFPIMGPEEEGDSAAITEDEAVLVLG

[9] = molecular target: panel of more than 300 wild-type and mutant kinases (313 kinase panel) (Homo sapiens, UniProt Q13464); conditions: kinase ROCK1; 1 μM
[10] = molecular target: panel of more than 300 wild-type and mutant kinases (313 kinase panel) (Homo sapiens, UniProt Q13554); conditions: kinase CaMK2β; 1 μM compound

SMILES	%-inhibition of PIK3CA/PIK3R1 [1] [%]	%-inhibition of RET(Y791F) [2] [%]	%-inhibition of PDK1 [3] [%]	%-inhibition of HIPK2 [4] [%]	%-inhibition of PRKX [5] [%]	%-inhibition of KIT(D816V) [6] [%]	%-inhibition, BRK [7] [%]	%-inhibition of PHKG2 [8] [%]	%-inhibition of ROCK1 [9] [%]	%-inhibition, CaMK2β [10] [%]
CO[C@H]1C[C@@H]2CC[C@@H](C)[C@@](O)(O2)C(=O)C(=O)N2CCCC[C@H]2C(=O)O[C@H]([C@H](C)C[C@@H]2CC[C@@H](OCCO)[C@H](OC)C2)CC(=O)[C@H](C)/C=C(\C)[C@@H](O)[C@@H](OC)C(=O)[C@H](C)C[C@H](C)/C=C/C=C/C=C/1C [everolimus]	22	-3.57	-9	-6	-4.49	-4.44	-4.32	-8	-3.7	-10
CC(=O)Nc1cccc(-n2c(=O)n(C3CC3)c(=O)c3c(Nc4ccc(I)cc4F)n(C)c(=O)c(C)c32)c1 [trametinib]	0.26	-1.71	-5.52	0.155	-1.19	-4	-5.53	2.81	3.21	0.738
CO[C@H]1C[C@@H]2CC[C@@H](C)[C@@](O)(O2)C(=O)C(=O)N2CCCC[C@H]2C(=O)O[C@H]([C@H](C)C[C@@H]2CC[C@@H](OC(=O)C(C)(CO)CO)[C@H](OC)C2)CC(=O)[C@H](C)/C=C(\C)[C@@H](O)[C@@H](OC)C(=O)[C@H](C)C[C@H](C)/C=C/C=C/C=C/1C [temsirolimus]	22	-0.679	-8	0.538	-1.9	-2.12	-6	-7	-0.679	-9
